# Experimental data from ChEMBL document CHEMBL3259698, “Reductions in log P improved protein binding and clearance predictions enabling the prospective design of cannabinoid receptor (CB1) antagonists with desired pharmacokinetic properties” (J Med Chem, 2013).
# Assays:
# [1] = Clearance in Sprague-Dawley rat at 3 mg/kg, iv; settings: in vivo
# [2] = Lipophilicity, log P of the compound by HPLC analysis; format: physicochemical
# Cannabinoid receptor 1 = Cannabinoid receptor 1 (Homo sapiens, UniProt P21554); assay: Binding affinity to human CB1 receptor expressed in CHO cells by radioligand displacement based scintillation counting analysis; format: cell-based
# Sequence of Cannabinoid receptor 1 (P21554 whole entry): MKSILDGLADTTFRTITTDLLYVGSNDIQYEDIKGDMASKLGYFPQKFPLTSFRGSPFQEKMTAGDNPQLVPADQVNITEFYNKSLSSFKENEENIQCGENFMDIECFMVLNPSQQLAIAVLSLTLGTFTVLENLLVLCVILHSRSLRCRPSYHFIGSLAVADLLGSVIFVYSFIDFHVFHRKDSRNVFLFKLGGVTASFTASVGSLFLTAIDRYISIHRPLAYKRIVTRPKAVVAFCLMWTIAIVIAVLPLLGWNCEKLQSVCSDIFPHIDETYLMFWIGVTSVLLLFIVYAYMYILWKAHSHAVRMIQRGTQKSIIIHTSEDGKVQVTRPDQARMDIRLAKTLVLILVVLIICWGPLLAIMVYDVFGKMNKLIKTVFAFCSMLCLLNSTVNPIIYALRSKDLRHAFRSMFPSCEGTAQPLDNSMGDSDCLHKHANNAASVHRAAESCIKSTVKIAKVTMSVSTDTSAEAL
# [3] = Terminal half life in Sprague-Dawley rat at 3 mg/kg, iv; format: ADME, organism-based; set-up: dose 3 mg/kg, route intravenous; settings: in vivo, read-out: beta t1/2 (converted)
# Rattus norvegicus [4] = assay: Reduction in food intake in nonfasted po dosed Sprague-Dawley rat measured for 20 hrs; format: functional; settings: read-out: MED
# Liver microsome = assay: Clearance in rat liver microsomes at 1 to 3 uM after 20 mins by LC/MS/MS analysis
# [5] = Aqueous solubility of the compound; format: physicochemical; settings: buffer
# [6] = Fraction unbound in rat plasma at 10 uM by equilibrium dialysis method; format: ADME, cell-free
# Cytochrome P450 2C9 = Cytochrome P450 2C9 (Homo sapiens, UniProt P11712); assay: Inhibition of human recombinant CYP2C9; format: ADME
# Sequence of Cytochrome P450 2C9 (P11712 whole entry): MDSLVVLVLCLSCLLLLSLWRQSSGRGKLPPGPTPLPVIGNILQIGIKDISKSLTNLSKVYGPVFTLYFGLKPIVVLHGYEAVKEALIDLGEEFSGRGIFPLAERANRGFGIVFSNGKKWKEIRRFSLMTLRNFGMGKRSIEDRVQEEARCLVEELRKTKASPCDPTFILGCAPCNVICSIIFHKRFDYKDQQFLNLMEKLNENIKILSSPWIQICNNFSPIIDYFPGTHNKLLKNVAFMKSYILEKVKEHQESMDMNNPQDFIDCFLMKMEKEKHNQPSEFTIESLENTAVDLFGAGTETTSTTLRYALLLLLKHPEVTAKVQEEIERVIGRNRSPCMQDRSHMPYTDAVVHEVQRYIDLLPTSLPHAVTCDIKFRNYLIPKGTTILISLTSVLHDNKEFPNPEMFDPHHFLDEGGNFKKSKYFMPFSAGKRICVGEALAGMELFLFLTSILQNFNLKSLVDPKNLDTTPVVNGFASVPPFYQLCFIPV
# Rattus norvegicus [7] = assay: Reduction in food intake in nonfasted Sprague-Dawley rat at 3 mg/kg, po measured for 8 hrs; format: functional; set-up: scale not given: the % may be the effect or the level left
# Rattus norvegicus [8] = assay: Reduction in food intake in nonfasted po dosed Sprague-Dawley rat measured for 8 hrs; format: functional; settings: read-out: MED
# Cytochrome P450 2C19 = Cytochrome P450 2C19 (Homo sapiens, UniProt P33261); assay: Inhibition of human recombinant CYP2C19; format: ADME
# Sequence of Cytochrome P450 2C19 (P33261 whole entry): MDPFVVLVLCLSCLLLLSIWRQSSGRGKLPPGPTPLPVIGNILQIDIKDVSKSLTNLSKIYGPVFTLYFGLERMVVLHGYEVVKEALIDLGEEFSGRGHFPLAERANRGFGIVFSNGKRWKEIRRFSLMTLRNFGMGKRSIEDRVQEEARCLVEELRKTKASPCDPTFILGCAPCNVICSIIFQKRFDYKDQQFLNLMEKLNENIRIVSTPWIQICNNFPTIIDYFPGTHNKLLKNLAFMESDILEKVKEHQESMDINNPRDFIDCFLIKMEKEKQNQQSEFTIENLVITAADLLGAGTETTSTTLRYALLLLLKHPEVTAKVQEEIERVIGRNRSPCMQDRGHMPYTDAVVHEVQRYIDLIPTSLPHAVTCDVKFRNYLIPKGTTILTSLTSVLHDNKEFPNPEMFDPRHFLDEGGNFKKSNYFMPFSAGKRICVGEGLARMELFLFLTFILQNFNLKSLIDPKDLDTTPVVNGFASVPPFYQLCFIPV
# Cytochrome P450 3A4 [9] = target: T1, Cytochrome P450 3A4 (Homo sapiens, UniProt P08684); assay: Inhibition of human recombinant CYP3A4
# T1 sequence (P08684 whole entry): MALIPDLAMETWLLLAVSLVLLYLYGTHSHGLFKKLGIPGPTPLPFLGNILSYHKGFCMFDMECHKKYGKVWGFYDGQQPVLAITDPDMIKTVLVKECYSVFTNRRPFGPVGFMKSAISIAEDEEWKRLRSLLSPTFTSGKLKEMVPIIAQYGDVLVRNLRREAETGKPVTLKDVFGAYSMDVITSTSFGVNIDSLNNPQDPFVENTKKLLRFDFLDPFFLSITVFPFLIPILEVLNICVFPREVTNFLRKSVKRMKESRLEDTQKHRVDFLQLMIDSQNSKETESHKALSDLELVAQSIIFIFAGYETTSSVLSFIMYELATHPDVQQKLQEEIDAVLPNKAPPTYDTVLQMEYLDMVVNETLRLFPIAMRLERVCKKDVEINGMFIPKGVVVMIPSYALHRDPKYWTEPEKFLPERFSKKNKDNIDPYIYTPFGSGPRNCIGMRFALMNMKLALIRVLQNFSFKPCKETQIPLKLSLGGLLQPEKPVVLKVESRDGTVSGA
# [10] = Cmax in rat at 10 mg/kg, qd; format: ADME, organism-based; set-up: dose 10 mg/kg; settings: in vivo
# [11] = Oral bioavailability in dog; format: ADME, organism-based, Canis lupus familiaris; settings: in vivo
# Rattus norvegicus [12] = assay: Antiobesity activity in rat assessed as reduction in body weight at 10 mg/kg, qd after 4 days; format: functional; set-up: scale not given: the % may be the effect or the level left
# Cytochrome P450 3A4 [13] = target: T1, Cytochrome P450 3A4; assay: Inhibition of CYP3A4 in human hepatocytes; format: ADME, cell-based, Hepatocyte
# [14] = Oral bioavailability in cynomolgus monkey; format: ADME, organism-based, Macaca fascicularis; settings: in vivo
# [15] = Oral bioavailability in Sprague-Dawley rat; format: ADME, organism-based; settings: in vivo
# Rattus norvegicus [16] = assay: Reduction in food intake in nonfasted Sprague-Dawley rat at 10 mg/kg, po measured for 8 hrs; format: functional; set-up: scale not given: the % may be the effect or the level left
# Rattus norvegicus [17] = assay: Antiobesity activity in rat assessed as reduction in food intake at 10 mg/kg; format: functional; set-up: scale not given: the % may be the effect or the level left
# Cytochrome P450 3A4 [18] = target: T1, Cytochrome P450 3A4; assay: Inhibition of CYP3A4 in human liver microsomes; format: ADME
# [19] = Elimination half life in iv dosed dog; format: ADME, organism-based, Canis lupus familiaris; settings: in vivo, read-out: beta t1/2 (converted)
# [20] = AUC (0 to 24 hrs) in rat at 10 mg/kg, qd; format: ADME, organism-based; set-up: time < 24 hr, dose 10 mg/kg; settings: plasma
# [21] = Elimination half life in iv dosed cynomolgus monkey; format: ADME, organism-based, Macaca fascicularis; settings: in vivo, read-out: beta t1/2 (converted)
SMILES,logP [2],Ki (Cannabinoid receptor 1) [µM],half-life [3] [h],IC50 (Cytochrome P450 2C9) [µM],IC50 (Cytochrome P450 2C19) [µM],also measured
O=c1n(Cc2ccc(C(F)(F)F)nc2)nc2c(-c3ccncc3)c(-c3ccc(Cl)cc3)cnn12,3.2,0.012,15,–,–,clearance [1]: 0.024 L/h/kg; minimal effective dose (Rattus norvegicus [4]): 0.3 mg/kg
COc1nn2c(=O)n(Cc3ccc(C(F)(F)F)nc3)nc2c(-c2ccncc2)c1-c1ccc(Cl)cc1,3.7,0.01,17,–,–,minimal effective dose (Rattus norvegicus [4]): 3 mg/kg
Cn1c(=O)c(-c2ccc(Cl)cc2)c(-c2ccncc2)c2nn(Cc3ccc(C(F)(F)F)nc3)c(=O)n21,3.5,0.018,35,–,–,solubility [5]: 0.001 mg/mL; minimal effective dose (Rattus norvegicus [4]): 1 mg/kg
Cn1nc2c(-c3ccc(Cl)cc3)c(-c3ccncc3)c(=O)n(Cc3ccc(C#N)cc3)n2c1=O,3,0.029,3.5,–,–,fraction unbound at 10 µM [6]: 0.05
Cn1nc2c(-c3ccc(Cl)cc3)c(-c3ccncc3)c(=O)n(Cc3ccc(C(F)(F)F)nc3)n2c1=O,–,0.028,6,1.9,4.3,solubility [5]: 0.04 mg/mL; Activity (Rattus norvegicus [7]): 21%; minimal effective dose (Rattus norvegicus [8]): 3 mg/kg
Cc1nc(C(F)(F)F)ccc1Cn1c(=O)c(-c2ccncc2)c(-c2ccc(Cl)cc2)c2nn(C)c(=O)n21,–,0.009,3.3,2.9,0.7,clearance [1]: 0.378 L/h/kg; IC50 (Cytochrome P450 3A4 [9]): 6.8 µM; Activity (Rattus norvegicus [7]): 33%; minimal effective dose (Rattus norvegicus [8]): 3 mg/kg
CCn1nc2c(-c3ccc(Cl)cc3)c(-c3ccncc3)c(=O)n(Cc3ccc(C(F)(F)F)nc3C)n2c1=O,3.9,0.0045,5,4.2,2.6,Cmax [10]: 4 µM; bioavailability [11]: 40%; Activity (Rattus norvegicus [12]): 4%; IC50 (Cytochrome P450 3A4 [13]): 3 µM; bioavailability [14]: 15%; bioavailability [15]: 50%; Activity (Rattus norvegicus [16]): 51%; Activity (Rattus norvegicus [17]): 43%; IC50 (Cytochrome P450 3A4 [18]): 9.1 µM; half-life [19]: 38 h; AUC at 24 h [20]: 48 µM·h; minimal effective dose (Rattus norvegicus [8]): 10 mg/kg; half-life [21]: 6 h
CCn1nc2c(-c3ccc(Cl)cc3)c(-c3ccncc3C)c(=O)n(Cc3ccc(C(F)(F)F)nc3C)n2c1=O,4.2,0.0084,–,5,32,IC50 (Cytochrome P450 3A4 [9]): > 40 µM

# Second part, led by results:
logP [2],Ki (Cannabinoid receptor 1) [µM],SMILES,half-life [3] [h],IC50 (Cytochrome P450 2C9) [µM],IC50 (Cytochrome P450 2C19) [µM],also measured
5.1,0.0017,CCCn1nc2c(-c3ccc(Cl)cc3)c(-c3ccc(C#N)cc3)c(=O)n(Cc3ccc(C(F)(F)F)nc3C)n2c1=O,29,–,–,clearance [1]: 1.74 L/h/kg; CLH (Liver microsome): 0.17 nmol/min/mg
3.3,0.21,Cc1nn2c(=O)n(Cc3ccc(C(F)(F)F)nc3)nc2c(-c2ccncc2)c1-c1ccc(Cl)cc1,–,–,–,–
2.5,4,O=c1[nH]n2c(=O)n(Cc3ccc(C(F)(F)F)nc3)nc2c(-c2ccncc2)c1-c1ccc(Cl)cc1,–,–,–,–
–,0.0042,N#Cc1ccc(Cn2nc3c(-c4ccncc4)c(-c4ccc(Cl)cc4)c(=O)n(Cc4ccc(C#N)cc4)n3c2=O)cc1,–,–,–,–
–,0.214,Cn1nc2c(-c3ccncc3)c(-c3ccc(Cl)cc3)c(=O)n(Cc3ccc(C#N)cc3)n2c1=O,–,–,–,–
4,0.015,CCn1nc2c(-c3ccc(Cl)cc3)c(-c3ccncc3)c(=O)n(Cc3ccc(C(F)(F)F)nc3)n2c1=O,2.4,4.9,11,clearance [1]: 2.22 L/h/kg; IC50 (Cytochrome P450 3A4 [9]): 18 µM
